Measured values as given in patent US8258128B2, “Organic compounds” (Novartis AG, priority 2006, dated 2012).
Entries after “also recorded” stand apart in the source; their conditions may differ. Marks after values point to notes of the source that are not given here.

Legend:
[1] = system: rat carrageenan edema model; experiment: Carrageenan edema in the rat (paw swelling); assay type: in vivo
Experimental: Carrageenan edema in the rat: The effects of COMPOUND A are investigated in the carrageenan edema model. In this model an acute paw swelling is induced by the sub-plantar injection of carrageenan. The paw swelling has a duration of approximately 8 hours and is completely resolved at 24 hours. The model is used to assess anti-inflammatory activities of new therapeutics and is also sensitive to drugs such as COX-inhibitors like Diclofenac, which is used as a positive control compound in the model.
Method: Male OFA rats (5 animals/group) are treated orally with COMPOUND A (1, 3 and 9 mg/kg), Diclofenac (3 mg/kg) or vehicle (placebo formulation). One hour later (0 hours) the rats receive a 100 μl intra-plantar injection of a 1% w/v carrageenan solution in 0.9% saline in the hind paw and the diameter of the paw is measured by means of a micro-caliper. The paw diameter measurements are repeated 3 and 5 hours after injection of the carrageenan. Percentage inhibition of paw swelling at 3 and 5 hours is calculated by reference to vehicle treated animals (0% inhibition).
Edema is induced by a sub-plantar injection of carrageenan in the paw of the rat. Paw diameters are measured at the time of carrageenan injection (0 hours) and at 3 and 5 hours. Compounds are administered 1 hour before the carrageenan injection. COMPOUND A was dosed at 1, 3 and 9 mg/kg p.o. and Diclofenac at 3 mg/kg p.o.

[2] = system: collagen-induced arthritis in the rats; experiment: Collagen-induced arthritis in the rats, hind paw swelling; assay type: in vivo, rat
Source text: Animal models of RA need to reflect at least some of the features found in human RA (Billingham et al., 1979). Collagen-induced arthritis (CIA) has been proposed to meet these requirements (Durie et al., 1994). Especially the similarity in the joint pathophysiology makes this animal model most attractive for the evaluation of anti-rheumatic drugs (Takeshita et al., 1997). Synovial hyperplasia, which is an integral part of the disease, parallels the migration of leukocytes into the joint space; erosion and destruction of the cartilage surface can also be found (Holmdahl et al., 1985). The rat CIA, originally described by Trentham et al. (1977), was established and extensive studies with CsA were done, including three-dimensional magnetic resonance imaging (MRI) and histology (Beckmann et al., 1995; 1998). Differences in the susceptibility of several rat strains for the development of the disease have been reported (Cremer et al., 1995; Kamada et al., 1997; Knoerzer et al., 1997).
(§1) Method: For this study, COMPOUND A and COX-inhibitor Diclofenac are dissolved in a solvent containing 5% of glucose (5 ml/kg). Compounds are given orally once a day. Female rats of the WAGxBUF/F1 crossbred strain (weight 130 g) are used. The animals are divided into several groups, one placebo group (N=8), and four treatment groups (each N=7-8). Treatment starts on peak of disease (day 0) and continues for 11 days. Swelling is assessed at regular time intervals by measuring the external thickness of the hind paws in the region of the metatarsals using a micro-caliper. Tissue samples for histological evaluation are obtained at the end of the in vivo experiment, 5 h after the last oral dose of COMPOUND A or placebo on day 11.
Results shown are means±SEM of groups of each 4-8 animals of paw diameters in mm on day-12 (before the immunization with Type II collagen in incomplete Freund's adjuvant), day 0 (start of treatment) and day 11 (end of treatment).
The data shown represent the ability of the treatment (COMPOUND A at 4 different increasing doses) to reduce the volume of the hind paw measured at day 2, day 7 and day 11.

[3] = system: collagen-induced arthritis in the rats; experiment: Collagen-induced arthritis in the rats, histological evaluation of hind paws; assay type: in vivo, rat; settings: day 11
Experimental: as §1
Hind paws from control arthritic rats (vehicle-treated), taken post-mortem at the end of day 11 of the treatment, obtained relatively high histological scorings compared to histological scores of animals treated with COMPOUND A (0.3, 1, 3 and 9 mg/kg) or Diclofenac (1 mg/kg).

[4] = Tolerability relative to effective dose in chronic disease models (general statement); assay type: in vivo; settings: doses more than 10 times higher than the effective dose in chronic disease models

In the case of `COC1=Nc2cc(Cl)ccc2/C(=C/C(=O)O)c2sc(Cl)cc21` [COMPOUND A, [2,7-Dichloro-10-methoxy-3-thia-9-aza-benzo[f]azulen-(4Z)-ylidene]-acetic acid], the “% inhibition of paw swelling” value ([1]; 1 mg/kg p.o., 3 hrs after carrageenan) is reported as 58%, the “% inhibition of paw swelling” value ([1]; 1 mg/kg p.o., 5 hrs after carrageenan) is reported as 65% and the “% inhibition of paw swelling” value ([1]; 3 mg/kg p.o., 3 hrs after carrageenan) is reported as 67%. For the same compound, the “% inhibition of paw swelling” value ([1]; 3 mg/kg p.o., 5 hrs after carrageenan) was 48%, the “% inhibition of paw swelling” value ([1]; 9 mg/kg p.o., 3 hrs after carrageenan) was 88% and the “% inhibition of paw swelling” value ([1]; 9 mg/kg p.o., 5 hrs after carrageenan) was 74%. For the same compound, the “inhibition in the carrageenan edema model (in words)” value ([1]; after 3 and 5 hours, dose of 1 to 9 mg/kg) was “dose-related inhibition”, the “hind paw diameter, mean ± SEM” value ([2]; 0.3 mg/kg group, Day 0 (start of treatment)) was 5.406 ± 0.448 mm and the “hind paw diameter, mean ± SEM” value ([2]; 0.3 mg/kg group, Day −12 (before immunization)) was 3.069 ± 0.016 mm. The “median inhibition of swelling, analysis of the AUC during day 0 to 11” value (shortened to “median inhibition of swelling”) ([2]; 0.3 mg/kg per day p.o.) was 29±9.2%, the “Effect on hind paw swelling” value ([2]; 0.3 mg/kg per day p.o., Day 0-11 (AUC)) was −29 ± 9.2% and the “Effect on hind paw swelling” value ([2]; 0.3 mg/kg per day p.o., Day 2) was −33% **. For the same compound, the “Effect on hind paw swelling” value ([2]; 0.3 mg/kg per day p.o., Day 7) was −31% *, the “Effect on hind paw swelling” value ([2]; 0.3 mg/kg per day p.o., Day 11) was −20% and the “hind paw diameter, mean ± SEM” value ([2]; 0.3 mg/kg per day p.o., Day 11 (end of treatment)) was 4.417 ± 0.079 mm. For the same compound, the “hind paw diameter, mean ± SEM” value ([2]; 1 mg/kg group, Day 0 (start of treatment)) was 5.350 ± 0.344 mm, the “hind paw diameter, mean ± SEM” value ([2]; 1 mg/kg group, Day −12 (before immunization)) was 3.107 ± 0.046 mm and the “median inhibition of swelling” value ([2]; 1 mg/kg per day p.o.) was 37±6.8%. The “Effect on hind paw swelling” value ([2]; 1 mg/kg per day p.o., Day 0-11 (AUC)) was −37 ± 6.8%, the “Effect on hind paw swelling” value ([2]; 1 mg/kg per day p.o., Day 2) was −40% ** and the “Effect on hind paw swelling” value ([2]; 1 mg/kg per day p.o., Day 7) was −38% **. The “Effect on hind paw swelling” value ([2]; 1 mg/kg per day p.o., Day 11) was −47% ***, the “hind paw diameter, mean ± SEM” value ([2]; 1 mg/kg per day p.o., Day 11 (end of treatment)) was 3.983 ± 0.064 mm and the “hind paw diameter, mean ± SEM” value ([2]; 3 mg/kg group, Day 0 (start of treatment)) was 5.379 ± 0.224 mm. For the same compound, the “hind paw diameter, mean ± SEM” value ([2]; 3 mg/kg group, Day −12 (before immunization)) was 3.136 ± 0.026 mm, the “median inhibition of swelling” value ([2]; 3 mg/kg per day p.o.) was 51±7.1% and the “Effect on hind paw swelling” value ([2]; 3 mg/kg per day p.o., Day 0-11 (AUC)) was −51 ± 7.1%. The “Effect on hind paw swelling” value ([2]; 3 mg/kg per day p.o., Day 2) was −59% ***, the “Effect on hind paw swelling” value ([2]; 3 mg/kg per day p.o., Day 7) was −47% *** and the “Effect on hind paw swelling” value ([2]; 3 mg/kg per day p.o., Day 11) was −71% ***. For the same compound, the “hind paw diameter, mean ± SEM” value ([2]; 3 mg/kg per day p.o., Day 11 (end of treatment)) was 3.592 ± 0.085 mm, the “hind paw diameter, mean ± SEM” value ([2]; 9 mg/kg group, Day 0 (start of treatment)) was 5.364 ± 0.231 mm and the “hind paw diameter, mean ± SEM” value ([2]; 9 mg/kg group, Day −12 (before immunization)) was 3.043 ± 0.028 mm. The “median inhibition of swelling” value ([2]; 9 mg/kg per day p.o.) was 67±5.4%, the “Effect on hind paw swelling” value ([2]; 9 mg/kg per day p.o., Day 0-11 (AUC)) was −67 ± 5.4% and the “Effect on hind paw swelling” value ([2]; 9 mg/kg per day p.o., Day 2) was −69% ***. The “Effect on hind paw swelling” value ([2]; 9 mg/kg per day p.o., Day 7) was −75% ***, the “Effect on hind paw swelling” value ([2]; 9 mg/kg per day p.o., Day 11) was −90% *** and the “hind paw diameter, mean ± SEM” value ([2]; 9 mg/kg per day p.o., Day 11 (end of treatment)) was 3.275 ± 0.038 mm. For the same compound, the “detrimental effect on body weight gain” value ([2]; 0.3 to 9 mg/kg per day p.o., 11 days) was “not observed; also recorded: does not interfere with body weight gain”, the “Bone apposition, effect on histological score” value ([3]; 0.3 mg/kg/day p.o.) was “+4%” and the “Cartilage damage, effect on histological score” value ([3]; 0.3 mg/kg/day p.o.) was −6%. The “Infiltration of cells, effect on histological score” value ([3]; 0.3 mg/kg/day p.o.) was “+8%”, the “Loss of PG, effect on histological score” value ([3]; 0.3 mg/kg/day p.o.) was “+1%” and the “Bone apposition, effect on histological score” value ([3]; 1 mg/kg/day p.o.) was −28%. The “Cartilage damage, effect on histological score” value ([3]; 1 mg/kg/day p.o.) was −24%, the “Infiltration of cells, effect on histological score” value ([3]; 1 mg/kg/day p.o.) was −7% and the “Loss of PG, effect on histological score” value ([3]; 1 mg/kg/day p.o.) was −13%. The “Bone apposition, effect on histological score” value ([3]; 3 mg/kg/day p.o.) was −35% *, the “Cartilage damage, effect on histological score” value ([3]; 3 mg/kg/day p.o.) was −40% * and the “Infiltration of cells, effect on histological score” value ([3]; 3 mg/kg/day p.o.) was −25%. For the same compound, the “Loss of PG, effect on histological score” value ([3]; 3 mg/kg/day p.o.) was −28% *, the “Bone apposition, effect on histological score” value ([3]; 9 mg/kg/day p.o.) was −51% ** and the “Cartilage damage, effect on histological score” value ([3]; 9 mg/kg/day p.o.) was −56% ***. The “Infiltration of cells, effect on histological score” value ([3]; 9 mg/kg/day p.o.) was −34% **, the “Loss of PG, effect on histological score” value ([3]; 9 mg/kg/day p.o.) was −40% * and the tolerability [4] was “very well tolerated”.
